Marks after values point to notes of the source that are not given here.
How the values were obtained:
[1] = system: Aedes aegypti Puerto Rican strain (pyrethroid-resistant); assay: Topical application KD50 and LD50, pyrethroid-resistant strain
[2] = system: Aedes aegypti Orlando strain (pyrethroid-susceptible); assay: Topical application KD50 and LD50, pyrethroid-susceptible strain
[3] = system: pyrethroid-susceptible (Orlando) strain of Aedes aegypti female adult mosquitoes; assay: Spatial repellency, static air repellency chamber, Orlando strain; format: in vivo; details: for EC50 (spatial repellency): 1 hour after introducing treated filter papers
Description: Spatial repellency of pogostone was assessed on pyrethroid-susceptible (Orlando) and pyrethroid-resistant (Puerto Rico) strains of Aedes aegypti female adult mosquitoes. Repellency bioassays were performed using a static air repellency chamber, which has been described previously (Schultz, 2006; Peterson, 2018). Briefly, the repellency chamber consists of a clear glass cylinder 600 mm in length with an inner diameter of roughly 85 mm laying horizontally. One end of the cylinder is capped with an untreated 90-mm filter paper (Whatman No. 1) contained in a 90-mm inner diameter glass petri dish, and sealed with tape to remain closed. The other end is capped in the same manner, except the filter paper has been treated with 1 mL of a 0.5% (w/v) solution of a monoterpenoid ester in acetone, resulting in 78.6 μg/cm^2 of repellent on the filter paper. The solution was added to the filter paper evenly and at a rate such that the evaporation of acetone prevents loss of compound from dripping, and the acetone was allowed to evaporate at room temperature for a further 10 minutes before use for the short-term repellency assay, or for an additional five hours under open air in ambient conditions in the case of long-term repellency studies. Shortly after placing the filter papers on the end of the tube, twenty (not blood fed) female […] mosquitoes were anesthetized with carbon dioxide, and placed into the tube via a 20-mm hole halfway down the length of the tube, and the hole was sealed. This process is performed with as little disturbance to the air in the tube as possible. The distribution of mosquitoes between the treated and untreated sides was then noted at 15, 30, 60, 90, 120, and 150 minutes after placement into the tube. Repellency ratio of Orlando or Puerto Rico mosquitoes was recorded as a proportion of the number of mosquitoes on the treated side of the tube compared to the whole tube [number of treated side/total number throughout entire tube] at 1 hour after introducing the treated filter papers.

[4] = system: Aedes aegypti adult female mosquitoes; assay: LD50 of insecticides alone and in combination with sublethal pogostone; format: in vivo; details: for Synergism Ratio: LD50 of insecticide alone / LD50 of insecticide in combination with pogostone; for LD50: insecticide alone or with pogostone at sublethal dosage, pogostone effect corrected with Abbott's formula
Description: The dashed line indicates sublethal dosage of pogostone used for synergist experiments in Example 2.
Synergism ratios are presented as the ratio of the LD50 of insecticide alone and the LD50 of insecticide applied in combination with pogostone. The insecticidal effect of pogostone alone is corrected for using Abbott's formula (Equation 1) in all treatments using pogostone.

house fly strain WHF (R) = assay: Median lethal dose determination, house fly WHF; format: in vivo; details: for LD50: WHF (R); for RR (resistance ratio): WHF (R) LD50 divided by susceptible strain LD50
Description: (§1) 24-hour median lethal dose determinations of pogostone and permethrin were performed in three house fly strains and one stable fly strain. The KS17 resistant strain below is simultaneously resistant to organophosphates, carbamates, and synthetic pyrethroids.
(§2) 48-hour median lethal dose determinations of pogostone and permethrin were performed in three house fly strains. The KS17 resistant strain below is simultaneously resistant to organophosphates, carbamates, and synthetic pyrethroids.

[5] = system: house fly strain CAR21 (S); assay: Median lethal dose determination, house fly CAR21; format: in vivo
Description: as §1, §2

[6] = system: house fly strain KS17 (R); assay: Median lethal dose determination, house fly KS17; format: in vivo; details: for LD50: KS17 (R); for RR (resistance ratio): KS17 (R) LD50 divided by susceptible strain LD50, NS = not significantly different
Description: as §1, §2

Stable flies (S) = assay: Median lethal dose determination, stable fly; format: in vivo; details: 24-hour
Description: as §1

[7] = system: pyrethroid-resistant (Puerto Rico) strain of Aedes aegypti female adult mosquitoes; assay: Spatial repellency, static air repellency chamber, Puerto Rico strain; format: in vivo
Description: Spatial repellency of pogostone was assessed on pyrethroid-susceptible (Orlando) and pyrethroid-resistant (Puerto Rico) strains of Aedes aegypti female adult mosquitoes. Repellency bioassays were performed using a static air repellency chamber, which has been described previously (Schultz, 2006; Peterson, 2018). Briefly, the repellency chamber consists of a clear glass cylinder 600 mm in length with an inner diameter of roughly 85 mm laying horizontally. One end of the cylinder is capped with an untreated 90-mm filter paper (Whatman No. 1) contained in a 90-mm inner diameter glass petri dish, and sealed with tape to remain closed. The other end is capped in the same manner, except the filter paper has been treated with 1 mL of a 0.5% (w/v) solution of a monoterpenoid ester in acetone, resulting in 78.6 μg/cm^2 of repellent on the filter paper. […] Repellency ratio of Orlando or Puerto Rico mosquitoes was recorded as a proportion of the number of mosquitoes on the treated side of the tube compared to the whole tube [number of treated side/total number throughout entire tube] at 1 hour after introducing the treated filter papers.

Clc1ccc(C(c2ccc(Cl)cc2)C(Cl)(Cl)Cl)cc1 [DDT]
KD50 [1]: 350 ng/mg | LD50 [1]: 530 ng/mg | KD50 [2]: 9.5 ng/mg | LD50 [2]: 9.6 ng/mg

CCN(CC)C(=O)c1cccc(C)c1 [DEET]
EC50 (spatial repellency) [3]: approximately 10 μg/cm^2

CN/C(=N/CC1CCOC1)N[N+](=O)[O-] (stereo not shown) [Dinotefuran]
Synergism Ratio [4]: 6.0* | LD50 [4]: 12.7 ng/mg

CC1(C)C(C=C(Cl)Cl)C1C(=O)OCc1cccc(Oc2ccccc2)c1 (stereo not shown) [Permethrin]
LD50 (house fly strain WHF (R); 24-hour): 1,100 ng/fly | RR (resistance ratio) (house fly strain WHF (R); 24-hour): 71.5 | LD50 (house fly strain WHF (R); 48-hour): 894 ng/fly | RR (resistance ratio) (house fly strain WHF (R); 48-hour): 61.7 | LD50 ([5]; 24-hour): 15.4 ng/fly | LD50 ([5]; 48-hour): 14.5 ng/fly | LD50 ([6]; 24-hour): >5000 ng/fly | RR (resistance ratio) ([6]; 24-hour): 325.1 | LD50 ([6]; 48-hour): >5,000 ng/fly | RR (resistance ratio) ([6]; 48-hour): 344.8 | Synergism Ratio [4]: 2.6* | LD50 [4]: 0.37 ng/mg | LD50 (Stable flies (S)): 1.81 ng/fly

Cc1cc(O)c(C(=O)CCC(C)C)c(=O)o1 [pogostone]
LD50 (house fly strain WHF (R); 24-hour): 13,900 ng/fly | RR (resistance ratio) (house fly strain WHF (R); 24-hour): 1.8 | LD50 (house fly strain WHF (R); 48-hour): 9,900 ng/fly | RR (resistance ratio) (house fly strain WHF (R); 48-hour): 1.5 | LD50 ([5]; 24-hour): 7,600 ng/fly | LD50 ([5]; 48-hour): 6,800 ng/fly | LD50 ([6]; 24-hour): 10,700 ng/fly | LD50 ([6]; 48-hour): 6,890 ng/fly | EC50 (spatial repellency) ([7]; 1 hour after introducing treated filter papers): 2.5 μg/cm^2 | spatial repellency (in words) ([7]; FIG. 2): considerably repellent | EC50 (spatial repellency) [3]: 3.6 μg/cm^2 | spatial repellency (in words) ([3]; FIG. 2): considerably repellent | KD50 [1]: 14 ng/mg | LD50 [1]: 70 ng/mg | LD50 (Stable flies (S)): 540 ng/fly | KD50 [2]: 11 ng/mg | LD50 [2]: 96 ng/mg
